Laboratory results taken from article PMC10209615, “Pharmacological inhibition of LSD1 suppresses growth of hepatocellular carcinoma by inducing GADD45B” (MedComm, 2023).

Key:
Blk = target: T1, Blk (Homo sapiens, UniProt P51451); experiment: Kinase activity detection (Eurofins); format: biochemical; conditions: ZY0511 1 µM, read-out: Inhibition rate
T1 construct: purchased Eurofins Pharma Discovery Services (KinaseProfiler)
Experimental: (§1) The activity of ZY0511 against 104 cancer‐related kinases was carried out by Eurofins Pharma Discovery Services (Celle Lévescault, France).

FGFR1 = target: T2, FGFR1 (Homo sapiens, UniProt P11362); experiment: Kinase activity detection (Eurofins); format: biochemical; conditions: ZY0511 1 µM, read-out: Activation rate
T2 construct: purchased Eurofins Pharma Discovery Services (KinaseProfiler)
Experimental: as §1

DNA-PK = target: T3, DNA-PK (Homo sapiens, UniProt P78527); experiment: Kinase activity detection (Eurofins); format: biochemical
T3 construct: purchased Eurofins Pharma Discovery Services
Experimental: as §1

ALK = target: T4, ALK (Homo sapiens, UniProt Q9UM73); experiment: Kinase activity detection (Eurofins); format: biochemical; conditions: ZY0511 1 µM, read-out: Activation rate
T4 construct: purchased Eurofins Pharma Discovery Services (KinaseProfiler)
Experimental: as §1

Pim-1 = target: T5, Pim-1 (Homo sapiens, UniProt P11309); experiment: Kinase activity detection (Eurofins); format: biochemical; conditions: ZY0511 1 µM, read-out: Inhibition rate
T5 construct: purchased Eurofins Pharma Discovery Services (KinaseProfiler)
Experimental: as §1

Wee1 = target: T6, Wee1 (Homo sapiens, UniProt P30291); experiment: Kinase activity detection (Eurofins); format: biochemical; conditions: ZY0511 1 µM, read-out: Activation rate
T6 construct: purchased Eurofins Pharma Discovery Services (KinaseProfiler)
Experimental: as §1

Abl (T315I) = target: T7, Abl (T315I) (Homo sapiens, UniProt P00519, T315I); experiment: Kinase activity detection (Eurofins); format: biochemical; conditions: ZY0511 1 µM, read-out: Inhibition rate
T7 construct: purchased Eurofins Pharma Discovery Services
Experimental: as §1

Ros = target: T8, Ros (Homo sapiens, UniProt P08922); experiment: Kinase activity detection (Eurofins); format: biochemical; conditions: ZY0511 1 µM, read-out: Inhibition rate
T8 construct: purchased Eurofins Pharma Discovery Services
Experimental: as §1

PI3 Kinase (p110δ/p85α) = target: T9, PI3 Kinase (p110δ/p85α) (Homo sapiens, UniProt O00329); experiment: Kinase activity detection (Eurofins); format: biochemical; conditions: ZY0511 1 µM, read-out: Inhibition rate
T9 construct: purchased Eurofins Pharma Discovery Services (KinaseProfiler)
Experimental: as §1

cKit (D816H) = target: T10, cKit (D816H) (Homo sapiens, UniProt P10721, D816H); experiment: Kinase activity detection (Eurofins); format: biochemical; conditions: ZY0511 1 µM, read-out: Activation rate
T10 construct: purchased Eurofins Pharma Discovery Services (KinaseProfiler)
Experimental: as §1

Mer = target: T11, Mer (Homo sapiens, UniProt Q12866); experiment: Kinase activity detection (Eurofins); format: biochemical; conditions: ZY0511 1 µM, read-out: Activation rate
T11 construct: purchased Eurofins Pharma Discovery Services (KinaseProfiler)
Experimental: as §1

Ret = target: T12, Ret (Homo sapiens, UniProt P07949); experiment: Kinase activity detection (Eurofins); format: biochemical; conditions: ZY0511 1 µM, read-out: Activation rate
T12 construct: purchased Eurofins Pharma Discovery Services (KinaseProfiler)
Experimental: as §1

Fes = target: T13, Fes (Homo sapiens, UniProt P07332); experiment: Kinase activity detection (Eurofins); format: biochemical; conditions: ZY0511 1 µM, read-out: Inhibition rate
T13 construct: purchased Eurofins Pharma Discovery Services (KinaseProfiler)
Experimental: as §1

MAPK2 = target: T14, MAPK2 (Homo sapiens, UniProt P28482); experiment: Kinase activity detection (Eurofins); format: biochemical; conditions: ZY0511 1 µM, read-out: Activation rate
T14 construct: purchased Eurofins Pharma Discovery Services (KinaseProfiler)
Experimental: as §1

ErbB2 = target: T15, ErbB2 (Homo sapiens, UniProt P04626); experiment: Kinase activity detection (Eurofins); format: biochemical; conditions: ZY0511 1 µM, read-out: Activation rate
T15 construct: purchased Eurofins Pharma Discovery Services (KinaseProfiler)
Experimental: as §1

Met = target: T16, Met (Homo sapiens, UniProt P08581); experiment: Kinase activity detection (Eurofins); format: biochemical; conditions: ZY0511 1 µM, read-out: Inhibition rate
T16 construct: purchased Eurofins Pharma Discovery Services (KinaseProfiler)
Experimental: as §1

HIPK2 = target: T17, HIPK2 (Homo sapiens, UniProt Q9H2X6); experiment: Kinase activity detection (Eurofins); format: biochemical; conditions: ZY0511 1 µM, read-out: Inhibition rate
T17 construct: purchased Eurofins Pharma Discovery Services
Experimental: as §1

Ron = target: T18, Ron (Homo sapiens, UniProt Q04912); experiment: Kinase activity detection (Eurofins); format: biochemical; conditions: ZY0511 1 µM, read-out: Activation rate
T18 construct: purchased Eurofins Pharma Discovery Services (KinaseProfiler)
Experimental: as §1

Hck = target: T19, Hck (Homo sapiens, UniProt P08631); experiment: Kinase activity detection (Eurofins); format: biochemical; conditions: ZY0511 1 µM, read-out: Inhibition rate
T19 construct: purchased Eurofins Pharma Discovery Services (KinaseProfiler)
Experimental: as §1

PKCη = target: T20, PKCη (Homo sapiens, UniProt P24723); experiment: Kinase activity detection (Eurofins); format: biochemical; conditions: ZY0511 1 µM, read-out: Activation rate
T20 construct: purchased Eurofins Pharma Discovery Services (KinaseProfiler)
Experimental: as §1

EGFR (T790M, L858R) = target: T21, EGFR (T790M, L858R) (Homo sapiens, UniProt P00533, L858R/T790M); experiment: Kinase activity detection (Eurofins); format: biochemical; conditions: ZY0511 1 µM
T21 construct: purchased Eurofins Pharma Discovery Services (KinaseProfiler)
Experimental: as §1

Hep3B = experiment: EdU incorporation assay; conditions: 96 h
[1] = Body weight of tumor‐bearing mice (HepG2, Hep3B, PDX1, PDX2); format: in vivo; conditions: CDX and PDX models, compared with control
Experimental: (§2) When the tumor volume reached approximately 100 mm^3, CDX & PDX tumor‐bearing mice were randomly divided into groups: (1) blank solvent; (2) ZY0511 50 mg/kg per day, i.p.; (3) ZY0511 100 mg/kg per day, i.p.; and (4) combinatorial treatment of ZY0511 50 mg/kg with DTP3 30 mg/kg, per day, i.p. Tumor sizes and animal body weights were monitored every 3 days, and tumor volumes were calculated as 0.5 × length × width^2. TGI rate was calculated as (1 − tumor volume of treated group/tumor volume of control group) x 100%.

Hep3B xenograft = experiment: Cell‐derived xenograft (CDX) model; format: in vivo, nude mice; conditions: 100 mg/kg i.p., 18 days
Experimental: (§3) For CDX models, HCC cells (HepG2, Hep3B) were harvested, and cells suspension (5 × 10^6 − 1 × 10^7 cells per mouse) were subcutaneously injected into the hind flank region of nude mice. For PDX models, fresh HCC tissues obtained from West China Hospital were minced into 2–5 mm^3 sizes to build the PDX models. The HCC tissue fragments were transplanted into the hind flank region of NOD/SCID mice within 2 h. Once the tumor volume reached ∼2 cm^3, the PDX models were expanded.
as §2

HepG2 xenograft = experiment: Cell‐derived xenograft (CDX) model; format: in vivo, nude mice; conditions: 100 mg/kg i.p., 18 days
Experimental: as §3, §2

PDX3 tumors = experiment: Third PDX model (PDX3), ZY0511 and DTP3; format: in vivo, NOD/SCID mice
Experimental: as §3, §2
Both procedures were carried out as previously described.[21] In brief, samples were fixated in 4% paraformaldehyde and consequently paraffin‐coated. Thin tissue segments (4 μm) were prepared, and H&E staining was performed. […]

PLC/PRF/5 = experiment: EdU incorporation assay; conditions: PLC/PRF/5, 96 h

T2 sequence (P11362 22-822): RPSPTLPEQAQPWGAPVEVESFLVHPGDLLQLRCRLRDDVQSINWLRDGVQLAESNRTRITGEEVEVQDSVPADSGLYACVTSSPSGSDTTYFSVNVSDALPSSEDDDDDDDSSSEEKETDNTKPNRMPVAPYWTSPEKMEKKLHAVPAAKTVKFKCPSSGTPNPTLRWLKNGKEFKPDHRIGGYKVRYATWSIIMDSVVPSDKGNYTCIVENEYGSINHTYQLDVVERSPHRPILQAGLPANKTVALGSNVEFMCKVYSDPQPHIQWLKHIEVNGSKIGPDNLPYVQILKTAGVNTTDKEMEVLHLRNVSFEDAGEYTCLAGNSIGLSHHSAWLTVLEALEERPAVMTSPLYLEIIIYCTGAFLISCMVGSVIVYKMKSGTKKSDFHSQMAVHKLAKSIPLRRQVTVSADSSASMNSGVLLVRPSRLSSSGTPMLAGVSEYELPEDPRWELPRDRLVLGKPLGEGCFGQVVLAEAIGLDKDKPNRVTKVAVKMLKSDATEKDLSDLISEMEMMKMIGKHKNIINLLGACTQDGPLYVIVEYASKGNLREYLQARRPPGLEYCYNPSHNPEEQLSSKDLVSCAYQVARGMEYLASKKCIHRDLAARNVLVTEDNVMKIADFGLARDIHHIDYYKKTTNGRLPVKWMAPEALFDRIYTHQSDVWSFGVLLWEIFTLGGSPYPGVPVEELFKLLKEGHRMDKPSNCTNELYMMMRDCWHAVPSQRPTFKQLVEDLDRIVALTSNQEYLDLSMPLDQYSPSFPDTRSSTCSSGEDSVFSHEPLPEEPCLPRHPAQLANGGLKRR
T16 sequence (P08581 25-1390): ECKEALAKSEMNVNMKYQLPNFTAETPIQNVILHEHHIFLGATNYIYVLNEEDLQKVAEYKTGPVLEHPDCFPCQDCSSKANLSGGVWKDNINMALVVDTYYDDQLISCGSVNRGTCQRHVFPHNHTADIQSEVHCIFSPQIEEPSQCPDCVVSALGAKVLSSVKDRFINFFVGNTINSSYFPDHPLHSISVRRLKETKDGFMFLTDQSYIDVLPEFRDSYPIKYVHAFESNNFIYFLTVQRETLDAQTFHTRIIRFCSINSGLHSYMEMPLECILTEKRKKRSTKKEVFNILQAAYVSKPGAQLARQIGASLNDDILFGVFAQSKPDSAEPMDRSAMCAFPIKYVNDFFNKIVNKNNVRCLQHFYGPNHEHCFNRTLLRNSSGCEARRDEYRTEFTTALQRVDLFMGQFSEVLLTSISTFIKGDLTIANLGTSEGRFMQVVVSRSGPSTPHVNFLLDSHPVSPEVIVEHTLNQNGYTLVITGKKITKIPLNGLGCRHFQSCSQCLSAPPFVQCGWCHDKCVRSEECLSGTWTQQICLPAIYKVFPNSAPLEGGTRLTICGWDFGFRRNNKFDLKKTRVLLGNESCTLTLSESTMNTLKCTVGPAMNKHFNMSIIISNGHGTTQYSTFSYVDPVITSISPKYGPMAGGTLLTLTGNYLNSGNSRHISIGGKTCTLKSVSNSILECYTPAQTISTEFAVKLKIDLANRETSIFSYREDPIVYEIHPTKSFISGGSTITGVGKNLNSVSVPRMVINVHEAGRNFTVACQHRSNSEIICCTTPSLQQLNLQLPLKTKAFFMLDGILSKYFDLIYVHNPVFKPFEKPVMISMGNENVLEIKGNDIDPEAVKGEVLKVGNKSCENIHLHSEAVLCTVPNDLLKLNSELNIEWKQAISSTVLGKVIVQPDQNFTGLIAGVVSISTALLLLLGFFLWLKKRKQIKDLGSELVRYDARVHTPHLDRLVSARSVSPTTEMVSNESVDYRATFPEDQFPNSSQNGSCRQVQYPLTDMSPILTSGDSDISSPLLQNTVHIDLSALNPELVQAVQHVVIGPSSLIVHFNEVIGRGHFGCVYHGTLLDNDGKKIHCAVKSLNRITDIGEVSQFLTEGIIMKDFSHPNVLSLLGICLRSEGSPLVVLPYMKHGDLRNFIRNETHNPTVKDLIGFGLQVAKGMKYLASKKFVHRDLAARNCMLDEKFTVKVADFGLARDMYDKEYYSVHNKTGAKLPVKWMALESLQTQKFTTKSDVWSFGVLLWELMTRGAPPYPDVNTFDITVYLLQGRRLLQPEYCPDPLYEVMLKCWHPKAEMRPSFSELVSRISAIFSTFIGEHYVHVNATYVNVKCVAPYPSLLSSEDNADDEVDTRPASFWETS
T5 sequence (P11309 whole entry): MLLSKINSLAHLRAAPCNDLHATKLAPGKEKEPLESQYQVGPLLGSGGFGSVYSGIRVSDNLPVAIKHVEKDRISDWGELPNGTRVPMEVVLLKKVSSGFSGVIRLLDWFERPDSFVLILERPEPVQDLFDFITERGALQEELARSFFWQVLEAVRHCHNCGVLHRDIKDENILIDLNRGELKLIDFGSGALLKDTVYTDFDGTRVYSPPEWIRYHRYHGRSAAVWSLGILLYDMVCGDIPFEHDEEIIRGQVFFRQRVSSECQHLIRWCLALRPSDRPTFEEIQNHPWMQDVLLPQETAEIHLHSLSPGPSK
T15 sequence (P04626 23-1255): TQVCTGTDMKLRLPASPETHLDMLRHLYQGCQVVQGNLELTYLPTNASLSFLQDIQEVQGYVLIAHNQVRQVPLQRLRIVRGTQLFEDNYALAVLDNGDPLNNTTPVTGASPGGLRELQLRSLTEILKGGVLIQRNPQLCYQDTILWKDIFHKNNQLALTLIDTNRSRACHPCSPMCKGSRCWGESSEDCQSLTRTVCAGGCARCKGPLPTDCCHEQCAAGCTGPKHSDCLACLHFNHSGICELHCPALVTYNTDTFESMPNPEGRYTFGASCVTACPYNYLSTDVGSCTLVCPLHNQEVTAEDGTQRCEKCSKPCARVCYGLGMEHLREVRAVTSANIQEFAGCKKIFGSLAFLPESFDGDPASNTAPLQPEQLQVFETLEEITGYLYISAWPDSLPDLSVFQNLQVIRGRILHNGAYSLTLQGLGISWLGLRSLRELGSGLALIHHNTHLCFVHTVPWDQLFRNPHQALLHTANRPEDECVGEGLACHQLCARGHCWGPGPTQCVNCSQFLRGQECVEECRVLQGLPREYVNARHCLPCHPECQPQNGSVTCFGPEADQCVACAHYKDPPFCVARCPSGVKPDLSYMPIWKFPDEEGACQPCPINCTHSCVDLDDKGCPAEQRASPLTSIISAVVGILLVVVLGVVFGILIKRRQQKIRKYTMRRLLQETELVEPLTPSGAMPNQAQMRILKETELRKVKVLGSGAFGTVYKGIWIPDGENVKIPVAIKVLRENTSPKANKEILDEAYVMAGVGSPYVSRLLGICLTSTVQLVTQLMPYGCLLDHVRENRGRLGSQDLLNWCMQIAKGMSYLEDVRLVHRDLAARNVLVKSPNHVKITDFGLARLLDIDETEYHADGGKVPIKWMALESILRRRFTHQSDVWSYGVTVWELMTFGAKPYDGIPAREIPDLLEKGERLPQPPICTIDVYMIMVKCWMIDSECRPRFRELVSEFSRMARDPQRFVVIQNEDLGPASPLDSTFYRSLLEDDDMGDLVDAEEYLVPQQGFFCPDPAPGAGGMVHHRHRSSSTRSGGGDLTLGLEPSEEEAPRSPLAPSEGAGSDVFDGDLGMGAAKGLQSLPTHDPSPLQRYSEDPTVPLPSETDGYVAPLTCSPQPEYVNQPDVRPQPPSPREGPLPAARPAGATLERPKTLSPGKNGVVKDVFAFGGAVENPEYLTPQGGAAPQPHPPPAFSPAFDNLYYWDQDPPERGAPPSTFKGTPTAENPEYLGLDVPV
T18 sequence (Q04912 25-1400): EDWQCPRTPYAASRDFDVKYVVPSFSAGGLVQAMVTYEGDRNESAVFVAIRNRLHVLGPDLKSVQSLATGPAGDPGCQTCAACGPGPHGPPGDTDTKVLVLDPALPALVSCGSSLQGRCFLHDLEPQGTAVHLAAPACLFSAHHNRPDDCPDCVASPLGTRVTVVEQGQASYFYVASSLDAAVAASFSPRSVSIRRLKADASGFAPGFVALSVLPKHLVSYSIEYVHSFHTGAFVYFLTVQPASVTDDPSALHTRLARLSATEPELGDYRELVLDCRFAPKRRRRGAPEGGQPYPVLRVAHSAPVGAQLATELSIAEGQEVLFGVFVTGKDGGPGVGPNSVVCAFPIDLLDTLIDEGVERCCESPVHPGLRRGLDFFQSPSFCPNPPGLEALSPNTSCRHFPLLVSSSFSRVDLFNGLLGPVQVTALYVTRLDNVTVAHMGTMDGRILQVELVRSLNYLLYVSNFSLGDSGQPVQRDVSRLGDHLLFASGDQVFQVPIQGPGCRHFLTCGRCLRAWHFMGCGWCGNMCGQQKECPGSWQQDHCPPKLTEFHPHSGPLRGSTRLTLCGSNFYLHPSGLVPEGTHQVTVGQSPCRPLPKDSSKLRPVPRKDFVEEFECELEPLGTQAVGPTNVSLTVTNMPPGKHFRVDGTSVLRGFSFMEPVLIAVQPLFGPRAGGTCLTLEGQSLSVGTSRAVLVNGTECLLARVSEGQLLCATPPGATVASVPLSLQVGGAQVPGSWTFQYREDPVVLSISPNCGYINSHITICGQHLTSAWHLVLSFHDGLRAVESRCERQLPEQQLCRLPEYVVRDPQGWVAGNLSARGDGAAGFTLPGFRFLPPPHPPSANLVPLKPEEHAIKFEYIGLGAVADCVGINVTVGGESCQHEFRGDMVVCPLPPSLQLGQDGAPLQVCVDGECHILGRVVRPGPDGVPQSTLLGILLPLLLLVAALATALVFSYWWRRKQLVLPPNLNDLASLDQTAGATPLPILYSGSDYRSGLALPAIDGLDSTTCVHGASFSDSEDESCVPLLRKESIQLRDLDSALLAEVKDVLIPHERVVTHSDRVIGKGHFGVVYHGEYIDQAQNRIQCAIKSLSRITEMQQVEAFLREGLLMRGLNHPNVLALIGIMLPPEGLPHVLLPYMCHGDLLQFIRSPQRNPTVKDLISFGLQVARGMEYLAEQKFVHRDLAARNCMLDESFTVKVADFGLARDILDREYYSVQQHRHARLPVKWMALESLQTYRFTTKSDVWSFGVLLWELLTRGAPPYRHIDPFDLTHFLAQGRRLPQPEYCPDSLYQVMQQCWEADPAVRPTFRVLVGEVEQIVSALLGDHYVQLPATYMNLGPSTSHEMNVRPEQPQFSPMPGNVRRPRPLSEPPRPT

O=C(N/N=C1\CCc2c(Cl)ccc(O)c21)c1cccc(S(=O)(=O)N2CCOCC2)c1 [ZY0511, (E)‐N'‐(2, 3‐dihydro‐1H‐inden‐1‐ylidene) benzohydrazides]
inhibition at 1 µM (Blk): 29% | activation at 1 µM (FGFR1): 1% | inhibition at 1 µM (DNA-PK; DNA-PK, ZY0511 1 µM, read-out: Inhibition rate): 60% | IC50 (DNA-PK; DNA‐PK): > 10 µM | activation at 1 µM (ALK): 23% | inhibition at 1 µM (Pim-1): 15% | activation at 1 µM (Wee1): 11% | inhibition at 1 µM (Abl (T315I)): 1% | inhibition at 1 µM (Ros): 11% | inhibition at 1 µM (PI3 Kinase (p110δ/p85α)): 6% | activation at 1 µM (cKit (D816H)): 2% | activation at 1 µM (Mer): 2% | activation at 1 µM (Ret): 15% | inhibition at 1 µM (Fes): 24% | activation at 1 µM (MAPK2): 16% | activation at 1 µM (ErbB2): 25% | inhibition at 1 µM (Met): 20% | inhibition at 1 µM (HIPK2): 13% | activation at 1 µM (Ron): 7% | inhibition at 1 µM (Hck): 29% | activation at 1 µM (PKCη): 2% | Activation rate (EGFR (T790M, L858R)): 2% | inhibition rate of EdU‐positive cells (Hep3B): 99.9% | body weight of mice [1]: did not change | tumor growth inhibition (TGI) (Hep3B xenograft): 52.70% | tumor growth inhibition (TGI) (HepG2 xenograft): 58.29% | blood routine indexes (red blood cell, white blood cell, lymph cell) (Acute toxicity assay; 400 mg/kg i.p., day 14): did not change | liver and kidney function indexes (ALT, AST, creatinine) (Acute toxicity assay; 400 mg/kg i.p., day 14): did not change | pathology of main organs (heart, liver, spleen, lung, kidney) (Acute toxicity assay; 400 mg/kg i.p., day 14, H&E): No pathological abnormality | no observed adverse effect level (Acute toxicity assay; mice, i.p.): 400 mg/kg | TGI (PDX3 tumors; PDX3, ZY0511 50 mg/kg i.p., 15 days): 32.79% | mice body weight (PDX3 tumors; PDX3, ZY0511 and/or DTP3, 15 days): no change | inhibition rate of EdU‐positive cells (PLC/PRF/5): 9.2%
